Patent US20200069691A1, “HETEROCYCLIC COMPOUNDS AS HIV PROTEASE INHIBITORS” (Merck Sharp & Dohme Corp., priority 2016, published 2020)

Biological target: T1, wild-type HIV-1 protease (Human immunodeficiency virus type 1 group M subtype B, UniProt P04585)
T1 construct: Escherichia coli expressed wild-type HIV-1 protease protein
Assay: Assay for Inhibition of Microbial Expressed HIV Protease (peptide substrate cleavage, LC-MS/MS readout)
Format: biochemical
Conditions: E. coli expressed wild-type HIV-1 protease, mean of at least two independent experiments, read-out: HIV Pr Enzyme HIV1 PR IC50
Description: Assay for Inhibition of Microbial Expressed HIV Protease
Inhibition of Escherichia coli expressed wild-type HIV-1 protease protein was carried out with a peptide substrate [Val-Ser-Gln-Asn-(βnaphtyl)Ala-Pro-Ile-Val]. The inhibitor compound was preincubated with HIV-1 protease enzyme in assay buffer (50 mM sodium acetate, pH 5.5, 100 mM NaCl, and 0.1% BSA) for 30 minutes at room temperature. Peptide substrate was added to 400 μM in a total volume of 20 μL containing […] HIV-1 protease (final) after which the reaction was incubated for 1 hour at 30° C. […] The extent of inhibition of the reaction was determined from the peak area of the products.
Data shown in the table reflects the mean of at least two independent experiments.

SMILES | IC50 [nM]
N=C1N[C@@](c2ccc(F)cc2)(C2CCOCC2)C(=O)N1C1CCCc2ccc(C(=O)N3Cc4nccnc4C3)cc21 (stereo in doubt) [Compound 130, (5R)-3-[(1R)-7-(5,7-dihydro-6H-pyrrolo[3,4-b]pyrazin-6-ylcarbonyl)-1,2,3,4-tetrahydronaphthalen-1-yl]-5-(4-fluorophenyl)-2-imino-5-(tetrahydro-2H-pyran-4-yl)imidazolidin-4-one] | 80.5
CC(C)CC[C@]1(c2ccc(F)cc2)NC(=N)N(C(CCCc2ccccc2)c2ccc(C(F)(F)F)c(C(=O)N3Cc4nccnc4C3)c2)C1=O (stereo partly drawn) [Compound 2, (5R)-3-{1-[3-(5,7-dihydro-6H-pyrrolo[3,4-b]pyrazin-6-ylcarbonyl)-4-(trifluoro-methyl)phenyl]-4-phenylbutyl}-5-(4-fluorophenyl)-2-imino-5-(3-methylbutyl)imidazolidin-4-one] | 0.14
N=C1N[C@](CCC2CC2)(c2ccc(F)cc2)C(=O)N1C(CCc1ccccc1)c1ccc(C(F)(F)F)c(C(=O)N2Cc3nccnc3C2)c1 (stereo partly drawn) [Compound 3, (5R)-5-(2-cyclopropylethyl)-3-{1-[3-(5,7-dihydro-6H-pyrrolo[3,4-b]pyrazin-6-ylcarbonyl)-4-(trifluoromethyl)phenyl]-3-phenylpropyl}-5-(4-fluorophenyl)-2-iminoimidazolidin-4-one] | 0.17
CC(C)CC[C@]1(c2ccc(F)cc2)NC(=N)N(C(Cc2ccccc2)c2ccc(C(F)(F)F)c(C(=O)N3Cc4nccnc4C3)c2)C1=O (stereo partly drawn) [Compound 4, (5R)-3-{1-[3-(5,7-dihydro-6H-pyrrolo[3,4-b]pyrazin-6-ylcarbonyl)-4-(trifluoromethyl)-phenyl]-2-phenylethyl}-5-(4-fluorophenyl)-2-imino-5-(3-methylbutyl)-imidazolidin-4-one] | 0.2
CC(C)CC[C@]1(c2ccccc2)NC(=N)N(C(CC(C)C)c2ccc(C(F)(F)F)c(C(=O)N3Cc4nccnc4C3)c2)C1=O (stereo partly drawn) [Compound 5, (5R)-3-{1-[3-(5,7-dihydro-6H-pyrrolo[3,4-b]pyrazin-6-ylcarbonyl)-4-(trifluoromethyl)-phenyl]-3-methylbutyl}-2-imino-5-(3-methylbutyl)-5-phenylimidazo-lidin-4-one] | 0.26
CC(C)CC[C@]1(c2ccc(F)cc2)NC(=N)N(C(Cc2ccccc2)c2ccc(C(F)(F)F)c(C(=O)N3Cc4nccnc4C3)c2)C1=O (stereo partly drawn) [Compound 6, (5R)-3-{1-[3-(5,7-dihydro-6H-pyrrolo[3,4-b]pyrazin-6-ylcarbonyl)-4-(trifluoromethyl)-phenyl]-2-phenylethyl}-5-(4-fluorophenyl)-2-imino-5-(3-methylbutyl)imidazolidin-4-one] | 0.26
N=C1N[C@](CCC2CC2)(c2ccc(F)cc2)C(=O)N1C(CN1CCCC1=O)c1ccc(C(F)(F)F)c(C(=O)N2Cc3nccnc3C2)c1 (stereo partly drawn) [Compound 7, (5R)-5-(2-cyclopropylethyl)-3-{1-[3-(5,7-dihydro-6H-pyrrolo[3,4-b]pyrazin-6-ylcarbonyl)-4-(trifluoromethyl)phenyl]-2-(2-oxopyrrolidin-1-yl)ethyl}-5-(4-fluorophenyl)-2-iminoimidazolidin-4-one] | 0.39
CC(C)CC[C@]1(c2ccc(F)cc2)NC(=N)N(C(COC(C)C)c2ccc(C(F)(F)F)c(C(=O)N3Cc4nccnc4C3)c2)C1=O (stereo partly drawn) [Compound 8, (5R)-3-{1-[3-(5,7-dihydro-6H-pyrrolo[3,4-b]pyrazin-6-ylcarbonyl)-4-(trifluoromethyl)phenyl]-2-(1-methylethoxy)ethyl}-5-(4-fluorophenyl)-2-imino-5-(3-methylbutyl)imidazolidin-4-one] | 0.52
CC(C)CCC(c1ccc(C(F)(F)F)c(C(=O)N2Cc3nccnc3C2)c1)N1C(=N)N[C@](CCC(C)C)(c2ccccc2)C1=O (stereo partly drawn) [Compound 9, (5R)-3-{1-[3-(5,7-dihydro-6H-pyrrolo[3,4-b]pyrazin-6-ylcarbonyl)-4-(trifluoromethyl)phenyl]-4-methylpentyl}-2-imino-5-(3-methylbutyl)-5-phenylimidazolidin-4-one] | 0.6
N=C1N[C@](CCCC(F)(F)F)(c2ccc(F)cc2)C(=O)N1Cc1ccc(C(F)(F)F)c(C(=O)N2Cc3cnc(-c4cnn(CCO)c4)nc3C2)c1 [Compound 12, (5R)-5-(4-fluorophenyl)-3-[3-({2-[1-(2-hydroxyethyl)-1H-pyrazol-4-yl]-5,7-dihydro-6H-pyrrolo[3,4-d]pyrimidin-6-yl}carbonyl)-4-(trifluoromethyl)benzyl]-2-imino-5-(4,4,4-trifluorobutyl)imidazolidin-4-one] | 1.32
CC(C)CC(c1ccc(C(F)(F)F)c(C(=O)N2Cc3nccnc3C2)c1)N1C(=N)N[C@](CC2CCOCC2)(c2ccc(F)cc2)C1=O (stereo partly drawn) [Compound 14, (5R)-3-{1-[3-(5,7-dihydro-6H-pyrrolo[3,4-b]pyrazin-6-ylcarbonyl)-4-(trifluoromethyl)phenyl]-3-methylbutyl}-5-(4-fluorophenyl)-2-imino-5-(tetrahydro-2H-pyran-4-ylmethyl)imidazolidin-4-one] | 1.77
Cn1cc(-c2ncc3c(n2)CN(C(=O)c2cc(CN4C(=N)N[C@](CCCC(F)(F)F)(c5ccc(F)cc5)C4=O)ccc2C(F)(F)F)C3)cn1 [Compound 15, (5R)-5-(4-fluorophenyl)-2-imino-3-[3-{[2-(1-methyl-1H-pyrazol-4-yl)-5,7-dihydro-6H-pyrrolo[3,4-d]pyrimidin-6-yl]carbonyl}-4-(trifluoromethyl)benzyl]-5-(4,4,4-trifluorobutyl)imidazolidin-4-one] | 1.95
CN(C)c1ccc(-c2ncc3c(n2)CN(C(=O)c2cc(CN4C(=N)N[C@](CCCC(F)(F)F)(c5ccc(F)cc5)C4=O)ccc2C(F)(F)F)C3)cn1 [Compound 16, (5R)-3-[3-({2-[6-(dimethylamino)pyridin-3-yl]-5,7-dihydro-6H-pyrrolo[3,4-d]pyrimidin-6-yl}carbonyl)-4-(trifluoromethyl)benzyl]-5-(4-fluorophenyl)-2-imino-5-(4,4,4-trifluorobutyl)imidazolidin-4-one] | 1.98
CS(=O)(=O)CCn1cc(-c2ncc3c(n2)CN(C(=O)c2cc(CN4C(=N)N[C@](CCCC(F)(F)F)(c5ccc(F)cc5)C4=O)ccc2C(F)(F)F)C3)cn1 [Compound 17, (5R)-5-(4-fluorophenyl)-2-imino-3-{3-[(2-{1-[2-(methylsulfonyl)ethyl]-1H-pyrazol-4-yl}-5,7-dihydro-6H-pyrrolo[3,4-d]pyrimidin-6-yl)carbonyl]-4-(trifluoromethyl)-benzyl}-5-(4,4,4-trifluorobutyl)-imidazolidin-4-one] | 1.99
CCCn1cc(-c2ncc3c(n2)CN(C(=O)c2cc(CN4C(=N)N[C@](CCCC(F)(F)F)(c5ccc(F)cc5)C4=O)ccc2C(F)(F)F)C3)cn1 [Compound 18, (5R)-5-(4-fluorophenyl)-2-imino-3-[3-{[2-(1-propyl-1H-pyrazol-4-yl)-5,7-dihydro-6H-pyrrolo[3,4-d]pyrimidin-6-yl]carbonyl}-4-(trifluoromethyl)benzyl]-5-(4,4,4-trifluorobutyl)imidazolidin-4-one] | 2
COCCn1cc(-c2ncc3c(n2)CN(C(=O)c2cc(CN4C(=N)N[C@](CCCC(F)(F)F)(c5ccc(F)cc5)C4=O)ccc2C(F)(F)F)C3)cn1 [Compound 20, (5R)-5-(4-fluorophenyl)-2-imino-3-[3-({2-[1-(2-methoxyethyl)-1H-pyrazol-4-yl]-5,7-dihydro-6H-pyrrolo[3,4-d]pyrimidin-6-yl}carbonyl)-4-(trifluoromethyl)benzyl]-5-(4,4,4-trifluorobutyl)imidazolidin-4-one] | 2.3
